In the oligonucleotide strings, read from the 5' end, every base follows the letter of its sugar. An asterisk marks phosphorothioate; unmarked linkages are phosphodiester. Other units and linkages are bracketed, terminal groups are in braces. A string of capitals states the bases alone. d = 2'-deoxy (DNA); r = 2'-OH (RNA)
The substances below were run on PCSK9 mRNA (assay: PCSK9 siRNA screening in HepG2 cells (lipofectamine 2000 transfection, PCSK9 mRNA by Quantigene, normalized to GAP-DH)). Details: not given.
Assay type: cell-based, human
Description: HuH-7 cells were obtained from JCRB Cell Bank (Japanese Collection of Research Bioresources) (Shinjuku, Japan, cat. No.: JCRB0403) Cells were cultured in Dulbecco's MEM (Biochrom AG, Berlin, Germany, cat. No. F0435) supplemented to contain 10% fetal calf serum (FCS) (Biochrom AG, Berlin, Germany, cat. No. S0115), Penicillin 100 U/ml, Streptomycin 100 μg/ml (Biochrom AG, Berlin, Germany, cat. No. A2213) and 2 mM L-Glutamin (Biochrom AG, Berlin, Germany, cat. No K0282) at 37° C. in an atmosphere with 5% CO2 in a humidified incubator (Heraeus HERAcell, Kendro Laboratory Products, Langenselbold, Germany) HepG2 and HeLa cells were obtained from American Type Culture Collection (Rockville, Md., cat. No. HB-8065) and cultured in MEM (Gibco Invitrogen, Karlsruhe, Germany, cat. No. 21090-022) supplemented to contain 10% fetal calf serum (FCS) (Biochrom AG, Berlin, Germany, cat. No. S0115), Penicillin 100 U/ml, Streptomycin 100 μg/ml (Biochrom AG, Berlin, Germany, cat. No. A2213), 1× Non Essential Amino Acids (Biochrom AG, Berlin, Germany, cat. No. K-0293), and 1 mM Sodium Pyruvate (Biochrom AG, Berlin, Germany, cat. No. L-0473) at 37° C. in an atmosphere with 5% CO2 in a humidified incubator (Heraeus HERAcell, Kendro Laboratory Products, Langenselbold, Germany).
For transfection with siRNA, HuH7, HepG2, or HeLa cells were seeded at a density of 2.0×10^4 cells/well in 96-well plates and transfected directly. Transfection of siRNA (30 nM for single dose screen) was carried out with lipofectamine 2000 (Invitrogen GmbH, Karlsruhe, Germany, cat. No. 11668-019) as described by the manufacturer.
24 hours after transfection HuH7 and HepG2 cells were lysed and PCSK9 mRNA levels were quantified with the Quantigene Explore Kit (Genosprectra, Dumbarton Circle Fremont, USA, cat. No. QG-000-02) according to the protocol. PCSK9 mRNA levels were normalized to GAP-DH mRNA. For each siRNA eight individual datapoints were collected. siRNA duplexes unrelated to PCSK9 gene were used as control. The activity of a given PCSK9 specific siRNA duplex was expressed as percent PCSK9 mRNA concentration in treated cells relative to PCSK9 mRNA concentration in cells treated with the control siRNA duplex.
Tables 1b and 2b (and FIG. 6A) summarize the results and provide examples of in vitro screens in different cell lines at different doses. Silencing of PCSK9 transcript was expressed as percentage of remaining transcript at a given dose.
Very active sequences are those that have less than 60% of transcript remaining after treatment with a dose less than or equal to 100 nM. Active sequences are those that have less than 90% transcript remaining after treatment with a high dose (100 nM).

Row | Substance | IC50 [nM]
1 | AD-9315: PCSK9 siRNA (sense rGrCrGrGrCrArCrCrCrUrCrArUrArGrGrCrCrUdT*dT; antisense rArGrGrCrCrUrArUrGrArGrGrGrUrGrCrCrGrCdT*dT) | 0.98
2 | AD-9524: PCSK9 siRNA (sense rGrCrUrGrGrUrGrCrUrArGrCrCrUrUrGrCrGrUdT*dT; antisense rArCrGrCrArArGrGrCrUrArGrCrArCrCrArGrCdT*dT) | 0.07
3 | AD-9531: PCSK9 siRNA (sense rArArArUrCrGrArGrGrGrCrArGrGrGrUrCrArUdT*dT; antisense rArUrGrArCrCrCrUrGrCrCrCrUrCrGrArUrUrUdT*dT) | 0.53

Same assay, conditions: 3 nM siRNA

Row | Substance | Mean percent remaining mRNA transcript at siRNA concentration/in cell type 3 nM/HepG2 [%]
4 | AD-9315: PCSK9 siRNA (sense rGrCrGrGrCrArCrCrCrUrCrArUrArGrGrCrCrUdT*dT; antisense rArGrGrCrCrUrArUrGrArGrGrGrUrGrCrCrGrCdT*dT) | 32
5 | AD-9323: PCSK9 siRNA (sense rGrGrCrCrUrGrGrArGrUrUrUrArUrUrCrGrGrAdT*dT; antisense rUrCrCrGrArArUrArArArCrUrCrCrArGrGrCrCdT*dT) | 33
6 | AD-9324: PCSK9 siRNA (sense rGrCrCrArUrCrUrGrCrUrGrCrCrGrGrArGrCrCdT*dT; antisense rGrGrCrUrCrCrGrGrCrArGrCrArGrArUrGrGrCdT*dT) | 67
7 | AD-9326: PCSK9 siRNA (sense rGrCrArCrCrCrUrCrArUrArGrGrCrCrUrGrGrAdT*dT; antisense rUrCrCrArGrGrCrCrUrArUrGrArGrGrGrUrGrCdT*dT) | 51
8 | AD-9524: PCSK9 siRNA (sense rGrCrUrGrGrUrGrCrUrArGrCrCrUrUrGrCrGrUdT*dT; antisense rArCrGrCrArArGrGrCrUrArGrCrArCrCrArGrCdT*dT) | 28
9 | AD-9531: PCSK9 siRNA (sense rArArArUrCrGrArGrGrGrCrArGrGrGrUrCrArUdT*dT; antisense rArUrGrArCrCrCrUrGrCrCrCrUrCrGrArUrUrUdT*dT) | 32

Same assay, conditions: 30 nM siRNA

Row | Substance | Mean percent remaining mRNA transcript at siRNA concentration/in cell type 30 nM/HepG2 [%]
10 | AD-9315: PCSK9 siRNA (sense rGrCrGrGrCrArCrCrCrUrCrArUrArGrGrCrCrUdT*dT; antisense rArGrGrCrCrUrArUrGrArGrGrGrUrGrCrCrGrCdT*dT) | 15
11 | AD-9323: PCSK9 siRNA (sense rGrGrCrCrUrGrGrArGrUrUrUrArUrUrCrGrGrAdT*dT; antisense rUrCrCrGrArArUrArArArCrUrCrCrArGrGrCrCdT*dT) | 14
12 | AD-9324: PCSK9 siRNA (sense rGrCrCrArUrCrUrGrCrUrGrCrCrGrGrArGrCrCdT*dT; antisense rGrGrCrUrCrCrGrGrCrArGrCrArGrArUrGrGrCdT*dT) | 59
13 | AD-9326: PCSK9 siRNA (sense rGrCrArCrCrCrUrCrArUrArGrGrCrCrUrGrGrAdT*dT; antisense rUrCrCrArGrGrCrCrUrArUrGrArGrGrGrUrGrCdT*dT) | 35
14 | AD-9514: PCSK9 siRNA (sense rGrUrArCrCrGrGrGrCrGrGrArUrGrArArUrArCdT*dT; antisense rGrUrArUrUrCrArUrCrCrGrCrCrCrGrGrUrArCdT*dT) | 57
15 | AD-9515: PCSK9 siRNA (sense rGrGrUrArCrCrGrGrGrCrGrGrArUrGrArArUrAdT*dT; antisense rUrArUrUrCrArUrCrCrGrCrCrCrGrGrUrArCrCdT*dT) | 49
16 | AD-9516: PCSK9 siRNA (sense rUrGrUrArUrCrUrCrCrUrArGrArCrArCrCrArGdT*dT; antisense rCrUrGrGrUrGrUrCrUrArGrGrArGrArUrArCrAdT*dT) | 94
17 | AD-9517: PCSK9 siRNA (sense rGrGrArGrGrUrGrUrArUrCrUrCrCrUrArGrArCdT*dT; antisense rGrUrCrUrArGrGrArGrArUrArCrArCrCrUrCrCdT*dT) | 36
18 | AD-9519: PCSK9 siRNA (sense rCrCrCrArGrCrCrArGrGrArUrUrCrCrGrCrGrCdT*dT; antisense rGrCrGrCrGrGrArArUrCrCrUrGrGrCrUrGrGrGdT*dT) | 78
19 | AD-9521: PCSK9 siRNA (sense rCrUrCrCrUrArGrArCrArCrCrArGrCrArUrArCdT*dT; antisense rGrUrArUrGrCrUrGrGrUrGrUrCrUrArGrGrArGdT*dT) | 50
20 | AD-9522: PCSK9 siRNA (sense rArArGrGrArGrCrArUrGrGrArArUrCrCrCrGrGdT*dT; antisense rCrCrGrGrGrArUrUrCrCrArUrGrCrUrCrCrUrUdT*dT) | 59
21 | AD-9523: PCSK9 siRNA (sense rCrArGrCrCrArGrGrArUrUrCrCrGrCrGrCrGrCdT*dT; antisense rGrCrGrCrGrCrGrGrArArUrCrCrUrGrGrCrUrGdT*dT) | 55
22 | AD-9524: PCSK9 siRNA (sense rGrCrUrGrGrUrGrCrUrArGrCrCrUrUrGrCrGrUdT*dT; antisense rArCrGrCrArArGrGrCrUrArGrCrArCrCrArGrCdT*dT) | 23
23 | AD-9525: PCSK9 siRNA (sense rGrGrArGrUrUrUrArUrUrCrGrGrArArArArGrCdT*dT; antisense rGrCrUrUrUrUrCrCrGrArArUrArArArCrUrCrCdT*dT) | 53
24 | AD-9526: PCSK9 siRNA (sense rUrCrCrCrArGrCrCrArGrGrArUrUrCrCrGrCrGdT*dT; antisense rCrGrCrGrGrArArUrCrCrUrGrGrCrUrGrGrGrAdT*dT) | 89
25 | AD-9527: PCSK9 siRNA (sense rGrCrCrArArCrCrCrGrCrUrCrCrArCrUrArCrCdT*dT; antisense rGrGrUrArGrUrGrGrArGrCrGrGrGrUrUrGrGrCdT*dT) | 45
26 | AD-9528: PCSK9 siRNA (sense rCrGrGrUrArCrCrGrGrGrCrGrGrArUrGrArArUdT*dT; antisense rArUrUrCrArUrCrCrGrCrCrCrGrGrUrArCrCrGdT*dT) | 113
27 | AD-9529: PCSK9 siRNA (sense rGrGrGrArUrArCrCrUrCrArCrCrArArGrArUrCdT*dT; antisense rGrArUrCrUrUrGrGrUrGrArGrGrUrArUrCrCrCdT*dT) | 60
28 | AD-9530: PCSK9 siRNA (sense rArCrCrGrGrGrCrGrGrArUrGrArArUrArCrCrAdT*dT; antisense rUrGrGrUrArUrUrCrArUrCrCrGrCrCrCrGrGrUdT*dT) | 75
29 | AD-9531: PCSK9 siRNA (sense rArArArUrCrGrArGrGrGrCrArGrGrGrUrCrArUdT*dT; antisense rArUrGrArCrCrCrUrGrCrCrCrUrCrGrArUrUrUdT*dT) | 31
30 | AD-9532: PCSK9 siRNA (sense rCrCrGrGrGrCrCrCrArCrArArCrGrCrUrUrUrUdT*dT; antisense rArArArArGrCrGrUrUrGrUrGrGrGrCrCrCrGrGdT*dT) | 100
31 | AD-9533: PCSK9 siRNA (sense rGrArCrCrArCrCrGrGrGrArArArUrCrGrArGrGdT*dT; antisense rCrCrUrCrGrArUrUrUrCrCrCrGrGrUrGrGrUrCdT*dT) | 100
32 | AD-9535: PCSK9 siRNA (sense rGrArGrUrGrArCrCrArCrCrGrGrGrArArArUrCdT*dT; antisense rGrArUrUrUrCrCrCrGrGrUrGrGrUrCrArCrUrCdT*dT) | 73
33 | AD-9536: PCSK9 siRNA (sense rUrUrArUrUrCrGrGrArArArArGrCrCrArGrCrUdT*dT; antisense rArGrCrUrGrGrCrUrUrUrUrCrCrGrArArUrArAdT*dT) | 157
34 | AD-9537: PCSK9 siRNA (sense rArCrGrGrUrArCrCrGrGrGrCrGrGrArUrGrArAdT*dT; antisense rUrUrCrArUrCrCrGrCrCrCrGrGrUrArCrCrGrUdT*dT) | 145
35 | AD-9538: PCSK9 siRNA (sense rCrCrGrGrGrCrGrGrArUrGrArArUrArCrCrArGdT*dT; antisense rCrUrGrGrUrArUrUrCrArUrCrCrGrCrCrCrGrGdT*dT) | 80

Same assay, conditions: 100 nM siRNA

Row | Substance | Mean percent remaining mRNA transcript at siRNA concentration/in cell type 100 nM/HepG2 [%]
36 | AD-9526: PCSK9 siRNA (sense rUrCrCrCrArGrCrCrArGrGrArUrUrCrCrGrCrGdT*dT; antisense rCrGrCrGrGrArArUrCrCrUrGrGrCrUrGrGrGrAdT*dT) | 74
37 | AD-9535: PCSK9 siRNA (sense rGrArGrUrGrArCrCrArCrCrGrGrGrArArArUrCdT*dT; antisense rGrArUrUrUrCrCrCrGrGrUrGrGrUrCrArCrUrCdT*dT) | 48
38 | AD-9538: PCSK9 siRNA (sense rCrCrGrGrGrCrGrGrArUrGrArArUrArCrCrArGdT*dT; antisense rCrUrGrGrUrArUrUrCrArUrCrCrGrCrCrCrGrGdT*dT) | 79

Reference: patent publication US20120016009A1, “Optimized Methods For Delivery Of DSRNA Targeting The PCSK9 Gene” (priority 2008, published 2012)
